Assay results taken from US11793820B2, “Dry powder foamable formulations for delivery of medicaments through the mucosa” (priority 2021, dated 2023).

Tests used:
[1] = Safety and tolerability of the oral rinse; type: in vivo, human; settings: for safe administration: 200 mg WR-2721 (10 ml 0.09 M) or 125 mg WR-1065 (10 ml 0.09 M)
Method: The amifostine is administered to the patient in the formulation described above (Table 2). Specifically, 125 mg of amifostine is provided as an oral rinse. The patient rinses for approximately one minute and thereafter, expels/discards the rinse. The rinse process can be repeated.
In this study, WR-1065 is detected in washed, isolated, vital mouth mucosa cells at a concentration of about 3.7-19.9 ng/10^5 cells.

[2] = after amifostine injection; cited from earlier work
[3] = system: epirubicin-induced oral mucositis; settings: cited from earlier work
[4] = intravenous administration; cited from earlier work
[5] = cited from earlier work

SMILES	safe administration [1]	systemic side-effects ([1]; oral rinse)	tolerability ([1]; oral rinse)	time of maximum tissue concentrations of WR-1065 [2]	difference between patients given amifostine oral rinse and control [3]	clearance from the plasma [4]	pH of the maximal rate of hydrolysis ([5]; hydrolysis of P-S bond to WR-1065)	stability at the gastric pH ([5]; pH from 1 to 3)
NCCCNCCS [WR-1065]	can be safely administered	no systemic side-effects	well-tolerated	within five to fifteen minutes	–	–	–	–
NCCCNCCSP(=O)(O)O [Amifostine, S-2-(3-aminopropylamino) ethyl dihydrogen phosphorothioate]	can be safely administered	–	–	–	no significant difference	rapidly cleared	3.0	unstable
